Here are results for two compounds from US20020156284A1, “Crystalline form of omeprazole” (priority 1998, published 2002).

SMILES strings stand for the structures. “Also recorded” adds a separate entry of the source.

Holding throughout (type): physicochemical
Data set [1] can be described thus: thermodynamic stability of crystal forms.
Data set [2] can be described thus: chemical stability (thermo stability and light stability). The conditions noted are these: compared with omeprazole form B.
A short description of data set [3]: hygroscopicity.
The mark [4] stands for this setting: compared with omeprazole form B, especially at room temperature.

As to `COc1ccc2[nH]c([S+]([O-])Cc3ncc(C)c(OC)c3C)nc2c1` (centres unmarked) [Omeprazole form B, 5-methoxy-2-[[(4-methoxy-3,5-dimethyl-2-pyridinyl)methyl]sulfinyl]-1H-benzimidazole, reference compound], in data set [1] (under certain conditions), the “conversion into the other crystal form” value is recorded as “completely or partly, be converted into omeprazole form A”.
On to `COc1ccc2[nH]c([S+]([O-])Cc3ncc(C)c(OC)c3C)nc2c1` (centres unmarked) [Omeprazole form A, 5-methoxy-2-[[(4-methoxy-3,5-dimethyl-2-pyridinyl)methyl]sulfinyl]-1H-benzimidazole], for which, in data set [1] (setting [4]), the thermodynamic stability entry is given as “thermodynamically more stable; also recorded: thermo-dynamically more stable than omeprazole form B”. For the same compound, the “chemical stability, such as thermo stability and light stability” value in data set [2] is recorded as “better chemical stability”. Besides, the “hygroscopicity (absolute statement)” value in data set [3] is reported as “essentially non-hygroscopic”. The hygroscopicity entry in data set [3] (setting [4]) was “less hygroscopic than omeprazole form B”.
